For this assay, the system named is immortalized human sebocyte cell line, SZ95. Nature of the assay: In vitro assay of inhibition of lipid synthesis. Particulars: 48 h, SZ95 sebocytes. Format: cell-based. As for the experimental part:
In Vitro Assay of Inhibition of Lipid Synthesis
To evaluate the inhibition of lipid synthesis, the immortalized human sebocyte cell line, SZ95 (stablished by Zouboulis, C. C. et al J Invest Dermatol 1999; 113:1011-20), was treated with arachidonic acid (AA) in presence or absence of compound. Lipids were detected by using a lipid sensing fluorophore.
Compounds were dissolved in dimethylsulfoxide (DMSO) 100%. Then the stocks were serial diluted 1/3 in DMSO 100%, and this battery of solutions were diluted 1/10 in culture medium, to minimize the percentage of the DMSO over cells.
10 k cells were plated in 384 well microtiter plates and incubated at 37° C. and 5% CO2 in DMEM/F12 supplemented with 10% FBS, 1.25 ng/ml of rhEGF and GA-1000 before of compound and stimulus addition. After 24 h, compounds dissolved in culture media were added over cells, diluting the solutions prepared 1/40 in the final volume of the assay. Then, cells and compounds were preincubated for 30 min at 37° C. and 5% CO2. After this prior incubation, the lipid synthesis was induced by 75 μM of AA final solution, preparing a solution 10× in culture media. Finally, SZ95 treated were incubated for 48 h at 37° C. and 5% CO2.
Neutral lipids were measured using AdipoRed™, purchased from LONZA. To do that, cells were washed with PBS and incubated with a solution of AdipoRed™ (final dilution 1/80 in PBS) for 30 min at room temperature. After the staining process, the fluorescence intensity (FI) was quantified using a fluorescence plate reader (excitation 485 nm; emission 535).
Activity of compounds were calculated as % of inhibition considering the maximal fluorescence for AA-stimulated cells and the minimum fluorescence for unstimulated cells as controls.

[1] abbreviates: 75 μM arachidonic acid, AdipoRed, Table 2, finer classes for compounds with IC50 less than 250 nM.
[2] abbreviates: lipid synthesis induced by 75 μM arachidonic acid, AdipoRed fluorescence, Table 1.

Regarding `CCCCCCCCCCCCCc1c[nH]c(C(=O)O)c1F` [Example 21, 3-Fluoro-4-tridecyl-1H-pyrrole-2-carboxylic acid], the half-maximal inhibitory concentration (IC50) is, setting by setting: under setting [1], below 50 nM; under setting [2], below 250 nM.

On to `CCCCCCCCCCCCOc1c[nH]c(C(=O)OCCOCCOCC)c1Cl` [Example 83, 2-(2-Ethoxyethoxy)ethyl 3-chloro-4-(dodecyloxy)-1H-pyrrole-2-carboxylate], for which, under setting [2], the concentration for half-maximal inhibition (IC50) is 250 to 1000 nM. Consider `CCCCCCCCCCCCCCCCc1cc(F)c(C(=O)O)[nH]1` [Example 123, 3-Fluoro-5-hexadecyl-1H-pyrrole-2-carboxylic acid], for which the 50% inhibitory concentration (IC50) runs as follows: under setting [1], 50 to 100 nM; under setting [2], below 250 nM. The matching figures for `CCCCCCCCCCCCCOc1c[nH]c(C(=O)O)c1Cl` [Example 89, 3-Chloro-4-(tridecyloxy)-1H-pyrrole-2-carboxylic acid]: below 50 nM and below 250 nM. Compound `CCCCCCCCCCCCCCCCCc1cc(F)c(C(=O)O)[nH]1` [Example 124, 3-Fluoro-5-heptadecyl-1H-pyrrole-2-carboxylic acid] had a 50% inhibitory concentration (IC50) under setting [2] below 250 nM. For `CCCCCCCCCCCCCc1c[nH]c(C(=O)OC(CO)CO)c1F` [Example 41, 1,3-Dihydroxypropan-2-yl 3-fluoro-4-tridecyl-1H-pyrrole-2-carboxylate], the IC50 reads like this: under setting [1], below 50 nM; under setting [2], below 250 nM. Consider `CCCCCCCCCCCCc1c[nH]c(C(=O)O)c1F` [Example 14, 4-Dodecyl-3-fluoro-1H-pyrrole-2-carboxylic acid], for which the IC50 is, setting by setting: under setting [1], below 50 nM; under setting [2], below 250 nM.

Consider `CCCCCCCCCCCCc1c[nH]c(C(=O)OC(C)OC(=O)OCCOCCOCC)c1F` (stereo not drawn) [Example 19, 4-Oxo-3,5,8,11-tetraoxatridecan-2-yl 4-dodecyl-3-fluoro-1H-pyrrole-2-carboxylate], for which the IC50 under setting [1] was below 50 nM and the IC50 under setting [2] is below 250 nM. In turn, `CCCCCCCCCCCCC(F)(F)COc1c[nH]c(C(=O)O)c1F` [Example 97, 4-((2,2-Difluorotetradecyl)oxy)-3-fluoro-1H-pyrrole-2-carboxylic acid] showed a half-inhibitory concentration (IC50) under setting [1] of 100 to 250 nM and an IC50 under setting [2] below 250 nM.

Under setting [2], `CCCCCCCCCCCCc1cc(Cl)c(C(=O)OCC(O)CO)[nH]1` (stereo not drawn) [Example 118, 2,3-Dihydroxypropyl 3-chloro-5-dodecyl-1H-pyrrole-2-carboxylate] gave a half-maximal inhibitory concentration (IC50) of 250 to 1000 nM.

`CCCCCCCCCCCCc1c[nH]c(C(=O)OCC(F)(F)F)c1F` [Example 15, 2,2,2-Trifluoroethyl 4-dodecyl-3-fluoro-1H-pyrrole-2-carboxylate]: the half-inhibitory concentration (IC50) is below 50 nM under setting [1] and below 250 nM under setting [2]. `CCOCCCCCCCCCCCCc1c[nH]c(C(=O)O)c1F` [Example 92, 4-(12-Ethoxydodecyl)-3-fluoro-1H-pyrrole-2-carboxylic acid]: the IC50 runs as follows: under setting [1], below 50 nM; under setting [2], below 250 nM.

As to `CCCCCCCCCCCCOc1c[nH]c(C(=O)OCCN2CCCC2=O)c1` [Example 4, 2-(2-Oxopyrrolidin-1-yl)ethyl 4-(dodecyloxy)-1H-pyrrole-2-carboxylate], the half-inhibitory concentration (IC50) under setting [2] lay within 1000 to 5000 nM. Under setting [2], `CCCCCCCCCCCCOc1c[nH]c(C(=O)OCCOCCOCCOCCO)c1` [Example 7, 2-(2-(2-(2-Hydroxyethoxy)ethoxy)ethoxy)ethyl 4-(dodecyloxy)-1H-pyrrole-2-carboxylate] registered a 50% inhibitory concentration (IC50) above 5000 nM. For `CCCCCCCCCCCCCc1c[nH]c(C(=O)OC(C)OC(=O)OCCOCCOCC)c1F` (stereo not drawn) [Example 51, 4-Oxo-3,5,8,11-tetraoxatridecan-2-yl 3-fluoro-4-tridecyl-1H-pyrrole-2-carboxylate], the IC50 under setting [1] is below 50 nM and the IC50 under setting [2] was below 250 nM. The like results for `CCCCCCCCCCCCOc1c[nH]c(C(=O)OCc2oc(=O)oc2C)c1` [Example 11, (5-methyl-2-oxo-1,3-dioxol-4-yl)methyl 4-(dodecyloxy)-1H-pyrrole-2-carboxylate] were, in that order, 100 to 250 nM and below 250 nM.

In the case of `CCCCCCCCCCCCOc1c[nH]c(C(=O)OCC(F)(F)F)c1Cl` [Example 81, 2,2,2-Trifluoroethyl 3-chloro-4-(dodecyloxy)-1H-pyrrole-2-carboxylate], the IC50 runs as follows: under setting [1], 100 to 250 nM; under setting [2], below 250 nM. Take `CCCCCCCCCCCCc1cc(Cl)c(C(=O)OCCOCCOCC)[nH]1` [Example 114, 2-(2-Ethoxyethoxy)ethyl 3-chloro-5-dodecyl-1H-pyrrole-2-carboxylate]: the IC50 under setting [2] is 1000 to 5000 nM. Under setting [2], `CCCCCCCCCCCCOc1c[nH]c(C(=O)OCCN2C(=O)CCC2=O)c1` [Example 3, 2-(2,5-Dioxopyrrolidin-1-yl)ethyl 4-(dodecyloxy)-1H-pyrrole-2-carboxylate] displayed a half-maximal inhibitory concentration (IC50) of 1000 to 5000 nM.

In the case of `O=C(O)c1[nH]c(CCCCCCCCCCCCCCF)cc1F` [Example 131, 3-Fluoro-5-(14-fluorotetradecyl)-1H-pyrrole-2-carboxylic acid], the half-maximal inhibitory concentration (IC50) by setting is: under setting [1], 100 to 250 nM; under setting [2], below 250 nM. The matching figures for `CCCCCCCCCCOc1c[nH]c(C(=O)O)c1F` [Example 71, 4-(Decyloxy)-3-fluoro-1H-pyrrole-2-carboxylic acid]: below 50 nM and below 250 nM. Under setting [2], `CCCCCCCCCC(F)(F)COc1c[nH]c(C(=O)O)c1F` [Example 98, 4-((2,2-Difluoroundecyl)oxy)-3-fluoro-1H-pyrrole-2-carboxylic acid] gave an IC50 of 250 to 1000 nM. On to `CCCCCCCCCCCCCc1c[nH]c(C(=O)O)c1Cl` [Example 61, 3-Chloro-4-tridecyl-1H-pyrrole-2-carboxylic acid], for which the concentration for half-maximal inhibition (IC50) is, setting by setting: under setting [1], 100 to 250 nM; under setting [2], below 250 nM. The matching figures for `CCCCCCCCCCCC(C)(C)COc1c[nH]c(C(=O)O)c1F` [Example 96, 4-((2,2-Dimethyltridecyl)oxy)-3-fluoro-1H-pyrrole-2-carboxylic acid]: 50 to 100 nM and below 250 nM.

In the case of `CCCCCCCCCCCCc1cc(Cl)c(C(=O)O)n1C` [Example 130, 3-Chloro-5-dodecyl-1-methyl-1H-pyrrole-2-carboxylic acid], the IC50 by setting is: under setting [1], 100 to 250 nM; under setting [2], above 5000 nM. The matching figures for `CCCCCCCCCCCCCc1cc(F)c(C(=O)O)[nH]1` [Example 120, 3-Fluoro-5-tridecyl-1H-pyrrole-2-carboxylic acid]: below 50 nM and below 250 nM.

As to `CCCCCCCCCCCCOc1c[nH]c(C(=O)OCCCCCCCCCO)c1Cl` [Example 82, 9-Hydroxynonyl 3-chloro-4-(dodecyloxy)-1H-pyrrole-2-carboxylate], the half-maximal inhibitory concentration (IC50) runs as follows: under setting [1], 100 to 250 nM; under setting [2], below 250 nM. The compound `CCCCCCCCCCCCCc1c[nH]c(C(=O)OC(C)OC(=O)OCCCCCCCCC)c1F` (stereo not drawn) [Example 46, 1-(((Nonyloxy)carbonyl)oxy)ethyl 3-fluoro-4-tridecyl-1H-pyrrole-2-carboxylate] registered a concentration for half-maximal inhibition (IC50) under setting [2] above 5000 nM. `CCCCCCCCCCCCOc1c[nH]c(C(=O)OCC(O)CO)c1Cl` (stereo not drawn) [Example 84, 2,3-Dihydroxypropyl 3-chloro-4-(dodecyloxy)-1H-pyrrole-2-carboxylate]: the IC50 was 100 to 250 nM under setting [1] and below 250 nM under setting [2]. Turning to `CCCCCCCCCCOc1c[nH]c(C(=O)O)c1Cl` [Example 78, 3-Chloro-4-(decyloxy)-1H-pyrrole-2-carboxylic acid], the 50% inhibitory concentration (IC50) is below 50 nM under setting [1] and below 250 nM under setting [2]. Turning to `CCCCCCCCCCCOc1c[nH]c(C(=O)OC(C)OC(=O)OC(C)C)c1F` (stereo not drawn) [Example 105, 1-((Isopropoxycarbonyl)oxy)ethyl 3-fluoro-4-(undecyloxy)-1H-pyrrole-2-carboxylate], the IC50 is below 50 nM under setting [1] and below 250 nM under setting [2].

Under setting [2], `CCCCCCCCCCCCOc1c[nH]c(C(=O)OCC(F)(F)F)c1` [Example 5, 2,2,2-Trifluoroethyl 4-(dodecyloxy)-1H-pyrrole-2-carboxylate] showed a half-inhibitory concentration (IC50) of 250 to 1000 nM. Consider `CCCCCCCCCCCCOc1c[nH]c(C(=O)O)c1F` [Example 73, 4-(Dodecyloxy)-3-fluoro-1H-pyrrole-2-carboxylic acid], for which the IC50 under setting [1] was below 50 nM and the IC50 under setting [2] was below 250 nM. The matching figures for `CCCCCCCCCCCOc1c[nH]c(C(=O)OCCOCCOCC)c1F` [Example 104, 2-(2-Ethoxyethoxy)ethyl 3-fluoro-4-(undecyloxy)-1H-pyrrole-2-carboxylate]: 100 to 250 nM and below 250 nM. In turn, `CCCCCCCCCCCCCCCc1c[nH]c(C(=O)O)c1Cl` [Example 62, 3-Chloro-4-pentadecyl-1H-pyrrole-2-carboxylic acid] yielded an IC50 under setting [2] of 250 to 1000 nM.

As to `CCCCCCCCCCCCCc1c[nH]c(C(=O)OC(C)OC(=O)OCCOC)c1Cl` (stereo not drawn) [Example 111, 1-(((2-methoxyethoxy)carbonyl)oxy)ethyl 3-chloro-4-tridecyl-1H-pyrrole-2-carboxylate], the IC50 reads like this: under setting [1], 100 to 250 nM; under setting [2], below 250 nM. Turning to `CCCCCCCCCCCCC(F)COc1c[nH]c(C(=O)O)c1Cl` (stereo not drawn) [Example 99, 3-Chloro-4-((2-fluorotetradecyl)oxy)-1H-pyrrole-2-carboxylic acid], the 50% inhibitory concentration (IC50) under setting [1] fell in the range of 100 to 250 nM and the 50% inhibitory concentration (IC50) under setting [2] is below 250 nM.

Values taken from patent publication US20210220328A1, “PYRROLE DERIVATIVES AS ACC INHIBITORS” (Almirall, S.A., priority 2017, published 2021).
